Measurements from PubChem BioAssay (NCI).
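Interpolation was linear, between the two tested concentrations surrounding the appropriate level; five concentrations were tested over 48 hours in 96-well plates. TGI: concentration producing complete growth inhibition.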

What was measured:
Experiment in all cases: NCI tumour cell line growth inhibition, 48 h
[1] = test system: SN12C renal
[2] = test system: A549 NSCLC
[3] = test system: A498 renal
[4] = test system: HCC-2998 colon
[5] = test system: OVCAR-8 ovarian
[6] = test system: CCRF-CEM leukemia
[7] = test system: PC-3 prostate
[8] = test system: LOX IMVI melanoma
[9] = test system: NCI-H226 lung
[10] = test system: HL-60(TB) leukemia
[11] = test system: U251 CNS
[12] = test system: MALME-3M melanoma
[13] = test system: SNB-19 CNS
[14] = test system: IGROV1 ovarian
[15] = test system: KM12 colon
[16] = test system: HOP-92 NSCLC
[17] = test system: ACHN renal
[18] = test system: MCF7 breast
[19] = test system: CAKI-1 renal
[20] = test system: HCT-15 colon
[21] = test system: MDA-MB-435
[22] = test system: MDA-MB-231 breast
[23] = test system: SK-MEL-28 melanoma
[24] = test system: EKVX NSCLC
[25] = test system: UACC-257 melanoma
[26] = test system: SF-539 CNS
[27] = test system: UO-31 renal
[28] = test system: HOP-62 NSCLC
[29] = test system: SF-295 CNS
[30] = test system: TK-10 renal
[31] = test system: RXF 393 renal
[32] = test system: HS 578T breast
[33] = test system: OVCAR-4 ovarian
[34] = test system: MOLT-4 leukemia
[35] = test system: 786-0 renal
[36] = test system: SW-620 colon
[37] = test system: SK-MEL-5 melanoma
[38] = test system: HCT-116 colon
[39] = test system: NCI-H522 lung
[40] = test system: SF-268 CNS
[41] = test system: SNB-75 CNS
[42] = test system: NCI-H23 lung
[43] = test system: OVCAR-3 ovarian
[44] = test system: HT29 colon
[45] = test system: OVCAR-5 ovarian
[46] = test system: K-562 leukemia
[47] = test system: RPMI-8226 leukemia
[48] = test system: DU-145 prostate
[49] = test system: SR leukemia
[50] = test system: NCI-H460 lung
[51] = test system: NCI/ADR-RES ovarian
[52] = test system: COLO 205 colon
[53] = test system: BT-549 breast
[54] = test system: M14 melanoma
[55] = test system: SK-MEL-2 melanoma
[56] = test system: SK-OV-3 ovarian
[57] = test system: UACC-62 melanoma
[58] = test system: T-47D breast

S=c1ncc2n[nH]nc2[nH]1
TGI [1]: > 100 µM
TGI [2]: > 100 µM
TGI [3]: > 100 µM
TGI [4]: > 100 µM
TGI [5]: > 100 µM
TGI [6]: > 100 µM
TGI [7]: > 100 µM
TGI [8]: > 100 µM
TGI [9]: > 100 µM
TGI [10]: > 100 µM
TGI [11]: > 100 µM
TGI [12]: > 100 µM
TGI [13]: > 100 µM
TGI [14]: > 100 µM
TGI [15]: > 100 µM
TGI [16]: > 100 µM
TGI [17]: > 100 µM
TGI [18]: > 100 µM
TGI [19]: > 100 µM
TGI [20]: > 100 µM
TGI [21]: > 100 µM
TGI [22]: > 100 µM
TGI [23]: > 100 µM
TGI [24]: > 100 µM
TGI [25]: > 100 µM
TGI [26]: > 100 µM
TGI [27]: > 100 µM
TGI [28]: > 100 µM
TGI [29]: > 100 µM
TGI [30]: > 100 µM
TGI [31]: > 100 µM
TGI [32]: > 100 µM
TGI [33]: > 100 µM
TGI [34]: > 100 µM
TGI [35]: > 100 µM
TGI [36]: > 100 µM
TGI [37]: > 100 µM
TGI [38]: > 100 µM
TGI [39]: > 100 µM
TGI [40]: > 100 µM
TGI [41]: > 100 µM
TGI [42]: > 100 µM
TGI [43]: > 100 µM
TGI [44]: > 100 µM
TGI [45]: > 100 µM
TGI [46]: > 100 µM
TGI [47]: > 100 µM
TGI [48]: > 100 µM
TGI [49]: > 100 µM
TGI [50]: > 100 µM
TGI [51]: > 100 µM
TGI [52]: > 100 µM
TGI [53]: > 100 µM

O=CC12c3ccccc3C(c3ccccc31)C1C(=O)NC(=O)C12 (stereo not drawn)
TGI [1]: > 100 µM
TGI [2]: > 100 µM
TGI [3]: 48.2 µM
TGI [4]: > 100 µM
TGI [5]: > 100 µM
TGI [6]: > 100 µM
TGI [7]: > 100 µM
TGI [8]: > 100 µM
TGI [9]: > 100 µM
TGI [10]: > 100 µM
TGI [11]: > 100 µM
TGI [12]: > 100 µM
TGI [13]: > 100 µM
TGI [14]: > 100 µM
TGI [15]: > 100 µM
TGI [16]: > 100 µM
TGI [17]: > 100 µM
TGI [54]: > 100 µM
TGI [18]: 47.7 µM
TGI [19]: > 100 µM
TGI [20]: > 100 µM
TGI [21]: > 100 µM
TGI [22]: > 100 µM
TGI [23]: > 100 µM
TGI [55]: > 100 µM
TGI [24]: > 100 µM
TGI [25]: > 100 µM
TGI [26]: > 100 µM
TGI [27]: > 100 µM
TGI [28]: > 100 µM
TGI [29]: > 100 µM
TGI [56]: > 100 µM
TGI [30]: > 100 µM
TGI [31]: > 100 µM
TGI [33]: > 100 µM
TGI [34]: > 100 µM
TGI [35]: > 100 µM
TGI [57]: > 100 µM
TGI [36]: > 100 µM
TGI [37]: > 100 µM
TGI [38]: > 100 µM
TGI [58]: > 100 µM
TGI [39]: > 100 µM
TGI [40]: > 100 µM
TGI [41]: > 100 µM
TGI [42]: > 100 µM
TGI [43]: > 100 µM
TGI [44]: > 100 µM
TGI [45]: > 100 µM
TGI [46]: > 100 µM
TGI [48]: > 100 µM
TGI [49]: > 100 µM
TGI [50]: > 100 µM
TGI [51]: > 100 µM
TGI [52]: > 100 µM
